Data from US20060020004A1, “Isoxazolidine compounds for treatment of bacterial infections” (Infinity Pharmaceuticals, Inc., priority 2004, published 2006).
≈ marks a conversion by molar mass, not a printed value. Blank lines part the entries; values can stand above or below the compound they belong to.

Key:
[1] = system: Methicillin resistant S. aureus ATCC 33591; experiment: MIC determination, MRSA; assay type: cell-based, Staphylococcus aureus; settings: MRSA ATCC 33591, 24 h; for MIC: Staphylococcus aureus
Procedure: (§1) Susceptibility testing for bacterial cultures is performed according to the National Council for Clinical Laboratory Standards (NCCLS) protocol M100-S12, “Performance Standards for Antimicrobial Susceptibility Testing.” The bacterial strains recommended by NCCLS were obtained from the American Type Culutre Collection (ATCC) (Table) and were maintained on Mueller Hinton (MHA) agar plates plus or minus 3% lysed horse blood (see Table). The bacteria were grown in Cation adjusted Mueller Hinton Broth (CaMHB) for liquid growth and susceptibility testing. S. cerevisiae (yeast) is grown in yeast peptone dextrose (YPD) media.
(§2) All bacterial cultures were grown at 37 degrees Celsius. Fresh colonies of S. aureus and MRSA were inoculated into liquid media and grown overnight and diluted the next day to grow to mid-log (Table 2). E. faecalis and S. pneumonia mid-log cultures were started directly from colony on plates. To attain mid-log growth, cultures were grown to an optical density (OD) at A590 of 0.2-0.8 (see Table 2) and then diluted to proper OD to obtain 5×10^5 cells/mL.
(§3) Diluted bacterial cultures are added to compound plates with compound diluted 2-fold from 100 μg/mL to 0.2 μg/mL final concentration in DMSO. Control antibiotics are also added: vancomycin, linezolid, and penicillin. In 384 well plates, 0.5 μL compound is added followed by addition of 50 μL of culture. DMSO alone is included as a control. Plates incubated at 37 degrees Celsius for 17-24 h.
(§4) Plates with cells mixed with compounds are incubated for 17 h for S. aureus and yeast, 24 h for MRSA, and all Enterococcus and Streptococcus strains. Yeast plates are incubated […].
(§5) Viability is determined by reading plates at A590 to determine optical density of treated and untreated cells and determining growth inhibition relative to controls.

[2] = system: Staphylococcus aureus (Smith) ATCC 19636; experiment: MIC determination, S. aureus; assay type: cell-based; settings: S. aureus ATCC 19636, 17 h; for MIC: Staphylococcus aureus, ATCC19636
Procedure: as §1, §2, §3, §4, §5

[3] = system: Penicillin-res. S. pneumonia ATCC 700671; experiment: MIC determination, PRSP; assay type: cell-based, Streptococcus pneumonia; settings: ATCC 700671, 24 h
Procedure: as §1, §2, §3, §4, §5

[4] = system: Streptococcus pneumonia ATCC 49619; experiment: MIC determination, S. pneumonia; assay type: cell-based; settings: ATCC 49619, 24 h
Procedure: as §1, §2, §3, §4, §5

MIC [1]: < 5 µg/mL
MIC [2]: < 5 µg/mL
SMILES: CCCCCCCCCCCCN1O[C@@H]([C@H](C)O)[C@@H](CO)[C@H]1C(=O)NCCc1c[nH]c2ccccc12

MIC [1]: 5 to 90 µg/mL (≈ 11.2 to 202 µM)
MIC [2]: 5 to 90 µg/mL (≈ 11.2 to 202 µM)
SMILES: CCCCCCCCN1O[C@@H]([C@H](C)O)[C@@H](CO)[C@H]1C(=O)NCCc1c[nH]c2ccccc12

SMILES: CC(O)C1ON(Cc2cccc(-c3ccc(Cl)cc3)c2)C(C(=O)NCCc2c[nH]c3ccccc23)C1CO (centres unmarked)
MIC MRSA [1]: ** (the MIC is 5-90 μg/mL)
MIC S. aureus [2]: ** (the MIC is 5-90 μg/mL)
MIC PRSP [3]: ** (the MIC is 5-90 μg/mL)

SMILES: O=C(NCCc1c[nH]c2ccccc12)C1C(CO)C(CO)ON1Cc1ccc(C#Cc2ccccc2)cc1 (centres unmarked)
MIC MRSA [1]: ** (the MIC is 5-90 μg/mL)
MIC S. aureus [2]: ** (the MIC is 5-90 μg/mL)
MIC PRSP [3]: ** (the MIC is 5-90 μg/mL)

SMILES: Cc1ccc(C#Cc2ccc(CN3OC(CN)CC3C(=O)NCCc3c[nH]c4ccccc34)cc2)cc1 (centres unmarked)
MIC MRSA [1]: ** (the MIC is 5-90 μg/mL)
MIC S. aureus [2]: ** (the MIC is 5-90 μg/mL)
MIC PRSP [3]: ** (the MIC is 5-90 μg/mL)

SMILES: Cc1ccc(C#Cc2ccc(CN3OC(CN)CC3C(=O)NCCc3c[nH]c4ccccc34)cc2)cc1.Cl (centres unmarked)
MIC MRSA [1]: ** (the MIC is 5-90 μg/mL)
MIC S. aureus [2]: ** (the MIC is 5-90 μg/mL)
MIC PRSP [3]: ** (the MIC is 5-90 μg/mL)

SMILES: CC(O)C1ON(Cc2ccc(C=Cc3ccccc3)cc2)C(C(=O)NCCc2c[nH]c3ccccc23)C1CO (centres unmarked) [drawing 216]
MIC MRSA [1]: *** (the MIC is less than 5 μg/mL)
MIC S. aureus [2]: *** (the MIC is less than 5 μg/mL)
MIC PRSP [3]: ** (the MIC is 5-90 μg/mL)

SMILES: CC(O)C1ON(Cc2ccc(-c3ccc(OC4CCCCO4)cc3)cc2)C(C(=O)NCCc2c[nH]c3ccccc23)C1CO (centres unmarked)
MIC S. pneuomiae [4]: ** (the MIC is 5-90 μg/mL)
MIC MRSA [1]: ** (the MIC is 5-90 μg/mL)
MIC S. aureus [2]: ** (the MIC is 5-90 μg/mL)

SMILES: CC(O)C1ON(Cc2ccc(-c3ccccc3)cc2)C(C(=O)NCCc2c[nH]c3ccccc23)C1CO (centres unmarked)
MIC MRSA [1]: ** (the MIC is 5-90 μg/mL)
MIC S. aureus [2]: ** (the MIC is 5-90 μg/mL)
MIC PRSP [3]: * (the MIC is >90 μg/mL)

SMILES: Cc1ccc(C#Cc2ccc(CN3OC4CNCC4C3C(=O)NCCc3c[nH]c4ccccc34)cc2)cc1.Cl (centres unmarked)
MIC [1]: 5 to 90 µg/mL
MIC [2]: 5 to 90 µg/mL

SMILES: CC(O)C1ON(Cc2cccc(C=Cc3ccc(Cl)cc3)c2)C(C(=O)NCCc2c[nH]c3ccccc23)C1CO (centres unmarked)
MIC MRSA [1]: *** (the MIC is less than 5 μg/mL)
MIC S. aureus [2]: *** (the MIC is less than 5 μg/mL)
MIC PRSP [3]: ** (the MIC is 5-90 μg/mL)

SMILES: CC(O)C1ON(Cc2cccc(C=Cc3ccccc3)c2)C(C(=O)NCCc2c[nH]c3ccccc23)N1CO (centres unmarked)
MIC MRSA [1]: ** (the MIC is 5-90 μg/mL)
MIC S. aureus [2]: ** (the MIC is 5-90 μg/mL)
MIC PRSP [3]: ** (the MIC is 5-90 μg/mL)

SMILES: CC(O)C1ON(Cc2ccc(C#Cc3cccc(O)c3)cc2)C(C(=O)NCCc2c[nH]c3ccccc23)C1CO (centres unmarked)
MIC MRSA [1]: ** (the MIC is 5-90 μg/mL)
MIC S. aureus [2]: ** (the MIC is 5-90 μg/mL)
MIC PRSP [3]: ** (the MIC is 5-90 μg/mL)

SMILES: Cc1ccc(C#Cc2ccc(CN3OCC(CO)C3C(=O)NCCc3c[nH]c4ccccc34)cc2)cc1 (centres unmarked) [drawing 221]
MIC MRSA [1]: ** (the MIC is 5-90 μg/mL)
MIC S. aureus [2]: ** (the MIC is 5-90 μg/mL)
MIC PRSP [3]: ** (the MIC is 5-90 μg/mL)

SMILES: Cc1ccc(C#Cc2ccc(CN3OC(C(C)O)C(CO)C3C(=O)NCCc3c[nH]c4ccccc34)cc2)cc1 (centres unmarked) [drawing 206]
MIC MRSA [1]: *** (the MIC is less than 5 μg/mL)
MIC S. aureus [2]: *** (the MIC is less than 5 μg/mL)
MIC PRSP [3]: ** (the MIC is 5-90 μg/mL)

SMILES: CC(O)C1ON(CCCCCCc2ccccc2)C(C(=O)NCCc2c[nH]c3ccccc23)C1CO (centres unmarked)
MIC MRSA [1]: ** (the MIC is 5-90 μg/mL)
MIC S. aureus [2]: ** (the MIC is 5-90 μg/mL)
MIC PRSP [3]: ** (the MIC is 5-90 μg/mL)

MIC [1]: 5 to 90 µg/mL (≈ 10.1 to 182 µM)
MIC [2]: 5 to 90 µg/mL (≈ 10.1 to 182 µM)
MIC ([3]; Streptococcus pneumoniae): 5 to 90 µg/mL (≈ 10.1 to 182 µM)
SMILES: Cc1ccc(C#Cc2ccc(CN3OC(CO)CC3C(=O)NCCc3c[nH]c4ccccc34)cc2)cc1 (centres unmarked)

SMILES: CC(O)C1ON(CCCCCCCCc2ccccc2)C(C(=O)NCCc2c[nH]c3ccccc23)C1CO (centres unmarked)
MIC MRSA [1]: ** (the MIC is 5-90 μg/mL)
MIC PRSP [3]: ** (the MIC is 5-90 μg/mL)
